Activity calls are given as the source filed them. The calls are words filed in the database; no cut-off is given here.
Experiments:
Acetylcholinesterase [1] = molecular target: T1, Acetylcholinesterase (Homo sapiens, UniProt P22303); experiment: Inhibition of human AChE by Ellman's method
Cholinesterase [2] = molecular target: T2, Cholinesterase (Homo sapiens, UniProt P06276); experiment: Inhibition of human BChE by Ellman's method
Beta-secretase 1 = Beta-secretase 1 (Homo sapiens, UniProt P56817); experiment: Inhibition of human BACE-1 by FRET assay
Beta-secretase 1, sequence (P56817 whole entry): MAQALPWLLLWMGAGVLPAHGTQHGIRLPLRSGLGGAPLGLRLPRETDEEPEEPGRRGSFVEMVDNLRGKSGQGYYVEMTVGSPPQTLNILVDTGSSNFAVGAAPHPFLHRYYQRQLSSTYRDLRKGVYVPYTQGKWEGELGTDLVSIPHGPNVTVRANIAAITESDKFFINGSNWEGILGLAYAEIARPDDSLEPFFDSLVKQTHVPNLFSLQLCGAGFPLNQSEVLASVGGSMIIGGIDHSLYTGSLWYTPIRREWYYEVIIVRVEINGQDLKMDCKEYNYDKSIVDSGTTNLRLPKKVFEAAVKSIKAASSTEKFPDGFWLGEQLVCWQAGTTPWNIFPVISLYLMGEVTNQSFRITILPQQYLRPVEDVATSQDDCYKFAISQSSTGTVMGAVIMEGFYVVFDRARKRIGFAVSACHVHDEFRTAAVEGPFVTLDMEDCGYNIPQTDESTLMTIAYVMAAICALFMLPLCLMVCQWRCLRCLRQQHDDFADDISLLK

[3] = Permeability of the compound at 25 ug/ml after 18 hrs by PAMPA-BBB assay
Cholinesterase [4] = molecular target: Cholinesterase (Equus caballus, UniProt P81908); experiment: Inhibition of equine serum BuChE by Ellman's method
Cholinesterase (Equus caballus, UniProt P81908), sequence (P81908 whole entry): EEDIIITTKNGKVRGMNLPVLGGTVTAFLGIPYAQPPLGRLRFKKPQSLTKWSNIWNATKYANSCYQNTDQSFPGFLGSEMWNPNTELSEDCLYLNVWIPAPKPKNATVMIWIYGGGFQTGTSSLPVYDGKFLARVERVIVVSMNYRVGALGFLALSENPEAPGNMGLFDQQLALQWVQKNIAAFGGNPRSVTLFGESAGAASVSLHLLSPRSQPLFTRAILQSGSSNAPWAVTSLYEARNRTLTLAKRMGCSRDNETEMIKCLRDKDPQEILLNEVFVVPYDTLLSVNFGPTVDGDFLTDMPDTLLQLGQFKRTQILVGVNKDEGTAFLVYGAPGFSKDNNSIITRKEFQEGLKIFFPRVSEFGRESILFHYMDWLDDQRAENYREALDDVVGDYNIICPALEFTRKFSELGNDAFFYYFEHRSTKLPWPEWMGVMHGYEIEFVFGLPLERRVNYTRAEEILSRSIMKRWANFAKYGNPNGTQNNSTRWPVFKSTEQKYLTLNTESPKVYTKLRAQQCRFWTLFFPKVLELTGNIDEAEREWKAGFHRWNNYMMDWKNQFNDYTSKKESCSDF

Cholinesterase [5] = molecular target: T2, Cholinesterase; experiment: Inhibition of BChE (unknown origin)
SH-SY5Y = experiment: Neuroprotective activity against amyloid beta (1 to 42)-induced oxidative stress in human SH-SY5Y cells assessed as effect on cell viability at 10 to 80 uM measured after 24 hrs by MTT assay (reference value: 62.1 %); type: functional; settings: dose microM 10-80
[6] = Acute toxicity in Wistar rat assessed as abnormal signs at 175 to 1750 mg/kg, po measured up to 14 days by OCED guideline method; type: organism-based; settings: in vivo, 336 h, dose 175-1750 mg/kg, time <=14 day
[7] = Acute toxicity in po dosed Wistar rat assessed as maximum tolerated dose by OCED guideline method; type: organism-based; settings: in vivo
Rattus norvegicus [8] = experiment: Cognitive enhancing effect in po dosed scopolamine-induced Wistar rat model of amnesia assessed as increase in spontaneous alteration pretreated for 7 days followed by scopolamine challenge by Y-maze test; type: functional, organism-based; settings: dose mg/kg 5-10, time 7.0 day
Rattus norvegicus [9] = experiment: Cognitive enhancing effect in scopolamine-induced Wistar rat model of amnesia assessed as increase in spontaneous alteration at 10 mg/kg, po pretreated for 7 days followed by scopolamine challenge by Y-maze test; type: functional, organism-based; settings: time 7.0 day
Rattus norvegicus [10] = experiment: Cognitive enhancing effect in scopolamine-induced Wistar rat model of amnesia assessed as effect on total arm entries at 2.5 to 10 mg/kg, po pretreated for 7 days followed by scopolamine challenge by Y-maze test; type: functional, organism-based; settings: dose mg/kg 2.5-10, time 7.0 day
Rattus norvegicus [11] = experiment: Ex vivo inhibition of AChE in brain of scopolamine-induced Wistar rat model of amnesia at 2.5 to 10 mg/kg, po pretreated for 7 days followed by scopolamine challenge using acetylthiocholine iodide as substrate by Ellman's method; type: functional, organism-based; settings: dose mg/kg 2.5-10, time 7.0 day
Rattus norvegicus [12] = experiment: Antioxidant activity in scopolamine-induced Wistar rat model of amnesia assessed as decrease in MDA level at 2.5 to 10 mg/kg, po pretreated for 7 days followed by scopolamine challenge […]; type: functional, organism-based; settings: dose mg/kg 2.5-10, time 7.0 day
Rattus norvegicus [13] = experiment: Antioxidant activity in scopolamine-induced Wistar rat model of amnesia assessed as increase in SOD level at 2.5 to 10 mg/kg, po pretreated for 7 days followed by scopolamine challenge […]; type: functional, organism-based; settings: dose mg/kg 2.5-10, time 7.0 day
Rattus norvegicus [14] = experiment: Cognitive enhancing effect in scopolamine-induced Wistar rat model of amnesia assessed as effect on total arm entries at 5 mg/kg, po pretreated for 7 days followed by scopolamine challenge by Y-maze test; type: functional, organism-based; settings: time 7.0 day
Rattus norvegicus [15] = species: Rattus norvegicus; settings: Wistar, dose 5.0 mg/kg, time 7.0 day
Acetylcholinesterase [16] = molecular target: T1, Acetylcholinesterase; experiment: Mixed type inhibition of human AChE assessed as decrease in Vmax using varying level of acetylthiocholine iodide as substrate by Lineweaver-Burk plot analysis
Acetylcholinesterase [17] = molecular target: T1, Acetylcholinesterase; experiment: Mixed type inhibition of human AChE assessed as increase in Km using varying level acetylthiocholine iodide as substrate by Lineweaver-Burk plot analysis
Acetylcholinesterase [18] = molecular target: T1, Acetylcholinesterase; experiment: Mixed type inhibition of human AChE assessed as dissociation constant using varying level acetylthiocholine iodide as substrate by Dixon plot analysis
Rattus norvegicus [19] = experiment: Cognitive enhancing effect in scopolamine-induced Wistar rat model of amnesia assessed as effect on total arm entries at 10 mg/kg, po pretreated for 7 days followed by scopolamine challenge by Y-maze test; type: functional, organism-based; settings: time 7.0 day
Rattus norvegicus [20] = experiment: (§1) Improvement in learning and spatial memory in icv infused amyloid beta (1 to 42)-induced rat model of Alzheimer's disease assessed as reduction in escape latency at 10 mg/kg, po administered for 9 consecutive days starting from 7 days post surgery and measured daily for 5 days by Morris water maze test; type: functional, organism-based; settings: time 9.0 day
Rattus norvegicus [21] = experiment: as §1, with “increase” for “reduction”, “number of platform crossing” for “escape latency”; type: functional, organism-based; settings: time 9.0 day
[22] = Cmax in Wistar rat at 10 mg/kg, po measured up to 48 hrs; type: ADME, organism-based; parameters: route oral, dose 10 mg/kg, time <=48; settings: in vivo
[23] = Tmax in Wistar rat at 10 mg/kg, po measured up to 48 hrs; type: ADME, organism-based; settings: in vivo
[24] = AUC (0 to 48 hrs) in Wistar rat at 10 mg/kg, po measured up to 48 hrs; type: ADME, organism-based; parameters: route oral, dose 10 mg/kg, time <=48; settings: in vivo
[25] = Half life in Wistar rat at 10 mg/kg, po measured up to 48 hrs; type: ADME, organism-based; settings: in vivo
[26] = MRT in Wistar rat at 10 mg/kg, po measured up to 48 hrs; type: ADME, organism-based; settings: in vivo

T2 sequence (P06276 whole entry): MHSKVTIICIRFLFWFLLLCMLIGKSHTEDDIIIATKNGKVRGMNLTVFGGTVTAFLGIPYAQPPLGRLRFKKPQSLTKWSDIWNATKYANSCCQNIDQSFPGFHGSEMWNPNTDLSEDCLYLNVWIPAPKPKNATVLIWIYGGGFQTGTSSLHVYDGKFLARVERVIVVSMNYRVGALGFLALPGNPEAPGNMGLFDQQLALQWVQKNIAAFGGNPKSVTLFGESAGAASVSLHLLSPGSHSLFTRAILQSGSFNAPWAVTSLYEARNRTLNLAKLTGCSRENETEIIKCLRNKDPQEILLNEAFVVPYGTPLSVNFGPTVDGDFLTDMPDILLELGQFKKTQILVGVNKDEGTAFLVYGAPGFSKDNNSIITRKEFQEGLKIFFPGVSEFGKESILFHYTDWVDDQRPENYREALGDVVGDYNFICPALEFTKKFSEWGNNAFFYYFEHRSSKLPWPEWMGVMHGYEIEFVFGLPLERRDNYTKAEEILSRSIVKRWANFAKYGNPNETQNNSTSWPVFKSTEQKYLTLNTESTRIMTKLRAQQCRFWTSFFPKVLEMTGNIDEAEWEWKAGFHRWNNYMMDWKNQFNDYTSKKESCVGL
T1 sequence (P22303 whole entry): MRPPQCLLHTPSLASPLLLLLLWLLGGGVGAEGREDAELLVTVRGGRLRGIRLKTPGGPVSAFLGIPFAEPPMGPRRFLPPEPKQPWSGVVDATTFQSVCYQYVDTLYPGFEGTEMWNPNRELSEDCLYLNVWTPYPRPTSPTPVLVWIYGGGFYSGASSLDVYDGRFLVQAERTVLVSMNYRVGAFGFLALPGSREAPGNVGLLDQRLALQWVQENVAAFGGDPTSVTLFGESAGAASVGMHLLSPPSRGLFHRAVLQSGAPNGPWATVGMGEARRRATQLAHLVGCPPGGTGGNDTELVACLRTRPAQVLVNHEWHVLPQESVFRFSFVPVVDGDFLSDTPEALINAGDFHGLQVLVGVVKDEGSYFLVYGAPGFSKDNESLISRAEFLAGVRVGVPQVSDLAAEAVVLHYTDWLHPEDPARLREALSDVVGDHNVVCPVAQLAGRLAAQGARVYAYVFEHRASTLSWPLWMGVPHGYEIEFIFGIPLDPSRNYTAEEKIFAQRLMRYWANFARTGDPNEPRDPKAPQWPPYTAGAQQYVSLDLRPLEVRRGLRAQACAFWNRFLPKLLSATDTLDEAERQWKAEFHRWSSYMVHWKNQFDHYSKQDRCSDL

SMILES	IC50 (Acetylcholinesterase [1])	IC50 (Cholinesterase [2])	IC50 (Beta-secretase 1)	also measured
Oc1ccc(/C=N\C2CCN(Cc3ccccc3)C2)cc1 (stereo not drawn)	5630 nM	2360 nM	4580 nM	
Oc1ccccc1CNC1CCN(Cc2ccccc2)C1 (stereo not drawn)	2260 nM	2730 nM	2370 nM	
Fc1ccc(CNC2CCN(Cc3ccccc3)C2)cc1 (stereo not drawn)	149 nM	791 nM	824 nM	Papp at 18 h, 25 ug/ml [3]: 4.2 ×10⁻⁶ cm/s
Brc1ccc(/C=N\C2CCN(Cc3ccccc3)C2)cc1 (stereo not drawn)	1300 nM	1190 nM	1750 nM	
Cc1cccc(/C=N\C2CCN(Cc3ccccc3)C2)c1 (stereo not drawn)	> 10000 nM	5790 nM		
O=[N+]([O-])c1ccc(/C=N\C2CCN(Cc3ccccc3)C2)cc1 (stereo not drawn)	2460 nM	2350 nM	3780 nM	
Oc1ccc(CNC2CCN(Cc3ccccc3)C2)cc1 (stereo not drawn)	1750 nM	1930 nM	968 nM	
O=[N+]([O-])c1ccc(CNC2CCN(Cc3ccccc3)C2)cc1 (stereo not drawn)	741 nM	1360 nM	1810 nM	
COc1cc(/C=N\C2CCN(Cc3ccccc3)C2)cc(OC)c1OC (stereo not drawn)	7790 nM	3500 nM	> 10000 nM	
Oc1ccc(/C=N\C2CCN(Cc3ccccc3)C2)c(O)c1 (stereo not drawn)	3680 nM	3280 nM	4430 nM	
FC(F)(F)c1ccc(/C=N\C2CCN(Cc3ccccc3)C2)cc1 (stereo not drawn)	1040 nM	2150 nM	683 nM	
Fc1ccc(/C=N\C2CCN(Cc3ccccc3)C2)c(F)c1 (stereo not drawn)	965 nM	1390 nM	2650 nM	
Cc1ccc(/C=N\C2CCN(Cc3ccccc3)C2)cc1 (stereo not drawn)	> 10000 nM	4860 nM		
COc1cc(CNC2CCN(Cc3ccccc3)C2)cc(OC)c1OC (stereo not drawn)	3130 nM	3220 nM	844 nM	
Cc1c(OCc2ccccc2)cccc1N1CCN(CCNC2CCN(Cc3ccccc3)C2)CC1 (stereo not drawn)				IC50 (Cholinesterase [4]): 7.78 µM
Brc1ccc(CNC2CCN(Cc3ccccc3)C2)cc1 (stereo not drawn)	133 nM	758 nM	648 nM	Papp at 18 h, 25 ug/ml [3]: 5.1 ×10⁻⁶ cm/s
Clc1ccc(/C=N\C2CCN(Cc3ccccc3)C2)cc1 (stereo not drawn)	1240 nM	1180 nM	1260 nM	

SMILES	IC50 (Acetylcholinesterase [1])	IC50 (Cholinesterase [2])	IC50 (Beta-secretase 1)	also measured
Clc1ccc(CNC2CCN(Cc3ccccc3)C2)cc1 (stereo not drawn)	178 nM	265 nM	163 nM	Papp at 18 h, 25 ug/ml [3]: 4.1 ×10⁻⁶ cm/s
C(=N/C1CCN(Cc2ccccc2)C1)/c1ccccc1 (stereo not drawn)	4120 nM	2680 nM	4380 nM	
c1ccc(CNC2CCN(Cc3ccccc3)C2)cc1 (stereo not drawn)	1130 nM	1570 nM	2420 nM	
c1ccc(CC2CCCN(CCNC3CCN(Cc4ccccc4)C3)C2)cc1 (stereo not drawn)				IC50 (Cholinesterase [5]): 1840 nM
Fc1ccc(CNC2CCN(Cc3ccccc3)C2)c(F)c1 (stereo not drawn)	69 nM	127 nM	97 nM	Papp at 18 h, 25 ug/ml [3]: 5.8 ×10⁻⁶ cm/s; Activity (SH-SY5Y): 66.8%; Activity [6]: Non-Toxic; MTD [7]: 1750 mg/kg; Activity (Rattus norvegicus [8]): Dose-dependent effect; Activity (Rattus norvegicus [9]): Active; Activity (Rattus norvegicus [10]): inactive; inhibition (Rattus norvegicus [11]): Active; Activity (Rattus norvegicus [12]): Active; Activity (Rattus norvegicus [13]): Active
Cc1ccc(CNC2CCN(Cc3ccccc3)C2)cc1 (stereo not drawn)	6390 nM	8750 nM	2240 nM	
FC(F)(F)Oc1ccc(/C=N\C2CCN(Cc3ccccc3)C2)cc1 (stereo not drawn)	864 nM	695 nM	2090 nM	
COc1cc2c(cc1OC)C(=O)C(CC1CCN(Cc3ccccc3)CC1)C2 (stereo not drawn)				Activity (Rattus norvegicus [14]): inactive; inhibition (Rattus norvegicus [15]): Active
Cc1cccc(CNC2CCN(Cc3ccccc3)C2)c1 (stereo not drawn)	> 10000 nM	2970 nM		
FC(F)(F)Oc1ccc(CNC2CCN(Cc3ccccc3)C2)cc1 (stereo not drawn)	58 nM	82 nM	115 nM	inhibition (Acetylcholinesterase [16]): Active; inhibition (Acetylcholinesterase [17]): Active; Ki (Acetylcholinesterase [18]): 23 nM; Papp at 18 h, 25 ug/ml [3]: 6.9 ×10⁻⁶ cm/s; Activity (SH-SY5Y): 71.5%; Activity [6]: Non-Toxic; MTD [7]: 750 mg/kg; Activity (Rattus norvegicus [8]): Dose-dependent effect; Activity (Rattus norvegicus [9]): Active; Activity (Rattus norvegicus [19]): inactive; inhibition (Rattus norvegicus [11]): Active; Activity (Rattus norvegicus [12]): Active; Activity (Rattus norvegicus [13]): Active; Activity (Rattus norvegicus [20]): Active; Activity (Rattus norvegicus [21]): Active; Cmax [22]: 272 ng/mL; Tmax [23]: 3.3 h; AUC(0-t) [24]: 5460 ng·h/mL; half-life [25]: 942 min; MRT [26]: 22.7 h
FC(F)(F)c1ccc(CNC2CCN(Cc3ccccc3)C2)cc1 (stereo not drawn)	128 nM	968 nM	975 nM	Papp at 18 h, 25 ug/ml [3]: 6.3 ×10⁻⁶ cm/s
Oc1ccc(CNC2CCN(Cc3ccccc3)C2)c(O)c1 (stereo not drawn)	1520 nM	2690 nM	482 nM	
COc1cccc(/C=N\C2CCN(Cc3ccccc3)C2)c1OC (stereo not drawn)	> 10000 nM	4270 nM		
Fc1ccc(/C=N\C2CCN(Cc3ccccc3)C2)cc1 (stereo not drawn)	1070 nM	1050 nM	1960 nM	
COc1cccc(CNC2CCN(Cc3ccccc3)C2)c1OC (stereo not drawn)	4380 nM	5460 nM	2860 nM	
Oc1ccccc1/C=N\C1CCN(Cc2ccccc2)C1 (stereo not drawn)	> 10000 nM	4150 nM		

Source: ChEMBL document CHEMBL4699547, “Design, synthesis, and multitargeted profiling of N-benzylpyrrolidine derivatives for the treatment of Alzheimer's disease” (Bioorg Med Chem, 2020)
